# Reference: patent publication US12371456B2, “Proteins for the treatment of epithelial barrier function disorders” (Genevive, Inc., priority 2017, dated 2025)
# Experiments:
# [1] = test system: HCT8 enterocytes and HT29-MTX goblet cells (epithelial monolayer) co-cultured with U937 monocytes; test: Co-culture trans-epithelial electrical resistance (TEER) assay, barrier disruption by heat killed E. coli; assay type: cell-based, human; settings: staurosporine 100 nM, negative control
# Method: Assays were performed as described below in trans-well plates where co-cultures of multiple cell types were performed utilizing a permeable membrane to separate cells. In the apical (top) chamber, human colonic epithelial cells, consisting of a mixture of enterocytes and goblet cells, were cultured until cells obtained tight junction formation and barrier function capacity as assessed by measurement of trans-epithelial electrical resistance (TEER). In the basolateral chamber, monocytes were cultured separately. Epithelial cells were primed with inflammatory cytokines.
# Cell culture. The HCT8 human enterocyte cell line (ATCC Cat. No. CCL-244) was maintained in RPMI-1640 medium supplemented with 10% fetal bovine serum, 100 IU/ml penicillin, 100 µg/ml streptomycin, 10 µg/ml gentamicin and 0.25 µg/ml amphotericin (cRPMI). HT29-MTX human goblet cells (Sigma-Aldrich (St. Louis, MO; Cat. No. 12040401) were maintained in DMEM medium with 10% fetal bovine serum, 100 IU/ml penicillin, 100 µg/ml streptomycin, 10 µg/ml gentamicin and 0.25 µg/ml amphotericin (cDMEM). Epithelial cells were passaged by trypsinization and were used between 5 and 15 passages following thawing from liquid nitrogen stocks. U937 monocytes (ATCC Cat. No. 700928) were maintained in cRPMI medium as a suspension culture, and split by dilution as needed to maintain cells between 5×10^5 and 2×10^6 cells/ml. U937 cells were used up to passage 18 following thawing from liquid nitrogen stocks.
# Epithelial cell culture. A mixture of HCT8 enterocytes and HT29-MTX goblet cells were plated at a 9:1 ratio, respectively, in the apical chamber of the transwell plate as described previously (Berget et al., 2017, Int J Mol Sci, 18:1573; Beduneau et al., 2014, Eur J Pharm Biopharm, 87:290-298). […] Epithelial cells were trypsinized from culture flasks and viable cells determined by trypan blue counting. […]
# Co-culture assay. […] Trans-epithelial electrical resistance (TEER) readings were measured after the IFN-γ treatment and were used as the pre-treatment TEER values. […]
# [2] = test system: HCT8 enterocyte and HT29-MTX goblet cell lines; test: Oris Cell Migration assay (epithelial cell wound healing); assay type: cell-based, human; settings: 48 hours; SG-14 1 μg/ml, EGF 30 ng/ml, staurosporine 100 nM; FIG. 5
# Source text: The 96 well Oris Cell Migration assay containing plugs preventing cell attachment in the center of each well was used according to the manufacturer's instructions (Platypus Technologies, Madison, WI). The migration assay plates were warmed to room temperature prior to use and plugs were removed from 100% confluence wells prior to cell addition. The HCT8 enterocyte and HT29-MTX goblet cell lines were used at a 9:1 ratio with a total of 5×10^4 total cells added per well (4.5×10^4 HCT8 cells and 0.5×10^4 HT29-MTX cells). Cells were incubated at 37° C.+5% CO2 for 24 hours. Plugs were then removed from all control and sample wells. Control wells included cells treated with the diluent vehicle as the blank, 30 ng/ml epidermal growth factor (EGF) as the positive control, and 100 nM staurosporine as the negative control, all diluted in cRPMI. Sample wells contained SG-14 protein at a concentration of 1 μg/ml diluted in cRPMI. 100% and 0% wells were cultured in cRPMI. […] The green fluorescent viability dye […] was added to all wells at a concentration of […] in PBS containing 0.9 mM CaCl2) and 0.5 mM MgCl2, incubated for 30 min at 37° C.+5% CO2, the dye was removed and cells were washed in PBS containing 0.9 mM CaCl2) and 0.5 mM MgCl2 and fluorescence was measured. […] Samples were normalized between 100% and 0% samples and values expressed as a percent growth.
# [3] = test system: DSS model of inflammatory bowel disease; test: DSS model: colon length and colon weight to length ratio; assay type: in vivo, C57BL/6 mice; settings: DSS treated mice
# Method: Eight-week old C57BL/6 mice were housed 5 animals were cage and given food and water ad libitum for 7 days. Following the 7-day acclimation period, treatments were initiated concurrently with addition of 2.5% DSS to the drinking water. […] The mice were treated with 2.5% dextran sodium sulfate (DSS) in their drinking water for 6 days. Treatments were continued with SG-14 or […]-GLP2 twice a day (b.i.d.) in the morning and evening (every 8 and 16 hr) with i.p. injections at 50 nmoles/kg. Fresh 2.5% DSS drinking water was prepared every 2 days. Colon length was measured in mice included in the DSS model described in Example 7. […] The graphs in FIG. 10 and FIG. 11 represent data pooled from the single experiment (n=10).
# [4] = design: species or system mice; settings: mouse, in vivo, ip
compound,measurement,setting,value
"CN[C@@H]1C[C@H]2O[C@@](C)([C@@H]1OC)n1c3ccccc3c3c4c(c5c6ccccc6n2c5c31)C(=O)NC4 [staurosporine, reference compound]",Effect on TEER (control compound),[1],drastic decrease in TEER
same,Wound healing (percent growth),[2],suppressing cell proliferation
"EGF: epidermal growth factor, positive control in wound healing assay",Wound healing (percent growth),[2],increasing proliferation
"Gly2-GLP2: a stable analog of glucagon-like peptide 2 (GLP2); positive control in DSS model (HGDGSFSDEMNTILDNLAARDFINWLIQTKITD; Glucagon-like peptide 2; UniProt P01275 146-178, looked up, variant A2G) [reference compound]",Colon length,[3]; FIG. 10,significant improvement in colon length
same,Ratio between colon weight and length,[3]; FIG. 11,significant reduction
fluorescently labeled bovine serum albumin: fluorescently labeled bovine serum albumin used for tracking after i.p. injection,Time at which protein reached the colon after i.p. delivery,[4],6 h
